According to patent publication EP3421460A1, “2-[(4-ALKYLPHENOXY)-PYRIDINYL]-1-(1,2,4-TRIAZOL-1-YL)ALKAN-2-OL FUNGICIDES” (Bayer Aktiengesellschaft, priority 2018, dated 2019):

Columns and labels:
[1] = tested on: Phakopsora pachyrhizi; test: in vivo curative test on Phakopsora (soybeans); conditions: sprayed 3 days after inoculation, evaluated 7 days after inoculation
Protocol: Example A: in vivo curative test on Phakopsora (soybeans); comparison of compound I-01 according to the invention vs. related compounds known from WO-A 2017/029179 and WO-A 2013/007767, respectively [table] To produce a suitable preparation of active compound, 1 part by weight of active compound is mixed with the stated amounts of solvent and emulsifier, and the concentrate is diluted with water to the desired concentration. To test for curative activity, young plants are inoculated with an aqueous spore suspension of the causal agent of soybean rust (Phakopsora pachyrhizi) and stay for 24h without light in an incubation cabinet at approximately 24°C and a relative atmospheric humidity of 95 %. The plants remain in the incubation cabinet at approximately 24°C and a relative atmospheric humidity of approximately 80 % and a day / night interval of 12h. 3 days after the inoculation, the plants are sprayed with the preparation of active compound at the stated rate of application. The test is evaluated 7 days after the inoculation. 0% means an efficacy which corresponds to that of the untreated control, while an efficacy of 100% means that no disease is observed. Table: in vivo curative test on Phakopsora test (soybeans)

[2] = tested on: Podosphaera leucotricha; test: in vivo curative test on Podosphaera (apples); conditions: sprayed 2 days after inoculation, evaluated 10 days after inoculation
Protocol: Example B: in vivo curative test on Podosphaera (apples); comparison of compound I-01 according to the invention vs. related compounds known from WO-A 2017/029179 and WO-A 2013/007767, respectively [table] To produce a suitable preparation of active compound, 1 part by weight of active compound is mixed with the stated amounts of solvent and emulsifier, and the concentrate is diluted with water to the desired concentration. To test for curative activity, young plants are inoculated with an aqueous spore suspension of the causal agent of apple mildew (Podosphaera leucotricha). The plants are placed in a greenhouse at approximately 23°C under relative atmospheric humidity of approximately 70%. 2 days after the inoculation, the plants are sprayed with the preparation of active compound at the stated rate of application. The test is evaluated 10 days after the inoculation. 0% means an efficacy which corresponds to that of the untreated control, while an efficacy of 100% means that no disease is observed. Table: in vivo curative test on Podosphaera test (apples)

[3] = LogP measurement by HPLC on reversed phase columns (EEC directive 79/831 Annex V.A8); assay type: physicochemical; conditions: reversed phase HPLC column; method [a]: LC-UV, acidic range, 0.1% formic acid in water and acetonitrile as eluent
Protocol: LogP values: Measurement of LogP values was performed according to EEC directive 79/831 Annex V.A8 by HPLC (High Performance Liquid Chromatography) on reversed phase columns with the following methods: • [a] […] If more than one LogP value is available within the same method, all the values are given and separated by "+". Calibration was done with straight-chain alkan2-ones (with 3 to 16 carbon atoms) with known LogP values (measurement of LogP values using retention times with linear interpolation between successive alkanones). Lambda-max-values were determined using UV-spectra from 200 nm to 400 nm and the peak values of the chromatographic signals.

| Structure (SMILES) | Efficacy in% ([1]; rate of application 5 ppm) [%] | Efficacy in% ([1]; rate of application 10 ppm) [%] | Efficacy in% ([2]; rate of application 1 ppm) [%] | Efficacy in% ([2]; rate of application 10 ppm) [%] | chromatographic logP [3] |
| --- | --- | --- | --- | --- | --- |
| CC(O)(Cn1cncn1)c1ccc(Oc2ccc(Cl)cc2)cc1C(F)(F)F (stereo not shown) [drawing 10] | 8 | 15 | – | – | – |
| Cc1ccc(Oc2ccc(C(C)(O)Cn3cncn3)c(C(F)(F)F)n2)cc1 (stereo not shown) [I-01, 2-[6-(4-methylphenoxy)-2-(trifluoromethyl)pyridin-3-yl]-1-(1,2,4-triazol-1-yl)propan-2-ol] | 86 | 83 | 86 | 99 | 2.69 |
| CC(O)(Cn1cncn1)c1ccc(Oc2ccc(S(F)(F)(F)(F)F)cc2)nc1C(F)(F)F (stereo not shown) [drawing 9] | 0 | 0 | – | – | – |
| CC(O)(Cn1cncn1)c1ccc(Oc2ccc(Cl)cc2)cc1C(F)(F)F (stereo not shown) [drawing 13] | – | – | 71 | 95 | – |
| CC(O)(Cn1cncn1)c1ccc(Oc2ccc(S(F)(F)(F)(F)F)cc2)nc1C(F)(F)F (stereo not shown) [drawing 12] | – | – | 62 | 92 | – |
